A word on the IC50: it is the point on the concentration scale where inhibition reaches its midpoint. What is called melting point is the temperature of the solid-liquid transition.

Data set [1] relates to HEK293 cells. In words: CellTiter-Glo Luminescent Cell Viability Assay in HEK293 cells. Format: cell-based. Particulars: Homo sapiens, 7 days (168 h) incubation, 3 μM to 0.00015 μM. The source says: CellTiter-Glo™ Assay in HEK293 Cells
The CellTiter-Glo™ Luminescent Cell Viability Assay (Promega) is a homogeneous method of determining the number of viable cells in culture based on quantitation of the ATP present, which signals the presence of metabolically active cells.
HEK293 cells (human embryonic kidney cell line transformed by Adenovirus 5 fragments, ATCC-No. CRL 1573) are cultivated in Dulbecco's Modified Eagle Medium (DMEM) with Glutamax™ (Invitrogen, 31966-021), 5% Fetal Calf Serum (FCS, Sigma Cat-No. F4135 (FBS)), 100 Units/ml penicillin/100 μg/ml streptomycin (=Pen/Strep from Invitrogen Cat. No. 15140). For the assay the cells are seeded in 384 well plates, 5000 cells per well, in the same medium. The next day the test compounds are added in various concentrations ranging from 3 μM to 0.00015 μM (10 concentrations, 1:3 diluted). After 7 days the CellTiter-Glo™ assay is done according to the instructions of the manufacturer (CellTiter-Glo™ Luminescent Cell Viability Assay, from Promega). In brief: the cell-plate is equilibrated to room temperature for approximately 30 minutes and than the CellTiter-Glo™ reagent is added. The contents are carefully mixed for 15 minutes to induce cell lysis. After 45 minutes the luminescent signal is measured in Victor 2, (scanning multiwell spectrophotometer, Wallac).
1. day: • Medium: Dulbecco's Modified Eagle Medium (DMEM) with Glutamax™ (Invitrogen, 31966-021), 5% Fetal Calf Serum (FCS, Sigma Cat-No. F4135 (FBS)), Pen/Strep (Invitrogen Cat. No. 15140). • HEK293 (ATCC-No. CRL 1573): 5000 cells in 60 μl per well of 384 well plate (Greiner 781098, white plates) • Incubate 24 h at 37° C., 5% CO2 2. day: Induction (Substance testing):
In general the dilution steeps are 1:3 • a) Add 8 μl of 10 mM stock solution of compound to 72 μl DMSO • b) dilute 9× 1:3 (always 30 μl to 60 μl DMSO) in this DMSO dilution row (results in 10 wells with concentrations from 1000 μM to 0.06 μM) • c) dilute each concentration 1:4.8 (10 μl compound dilution to 38 μl medium) • d) dilute each concentration 1:10 (10 μl compound dilution to 90 μl medium) • e) add 10 μl of every concentration to 60 μl medium in the cell plate • resulting in final concentration of DMSO: 0.3% in every well • and resulting in final concentration of compounds from 3 μM to 0.00015 μM • Incubate 168 h (7 days) at 37° C., 5% CO2
• Add 30 μl CellTiter-Glo™ Reagent/well, • shake 15 minutes at room temperature • incubate further 45 minutes at room temperature without shaking.
• Victor 2 scanning multiwell spectrophotometer (Wallac), Luminescence mode • Determine IC50 with XL-fit (XLfit software (ID Business Solution Ltd., Guilford, Surrey, UK)).
For orientation: Cellular ATP, detected with luciferase, serves as a proxy for viable cell number.

With `FC(F)(F)Oc1ccc(/C=C/c2nc(COc3ccc(CCCCn4ccnc4)nn3)co2)cc1` [Example 1, 3-(4-Imidazol-1-yl-butyl)-6-{2-[(E)-2-(4-trifluoromethoxy-phenyl)-vinyl]-oxazol-4-ylmethoxy}-pyridazine], in data set [1], the IC50 is 200 to 2000 nM.

`Clc1ccc(/C=C/c2nc(COc3ccc(CCCCn4cncn4)nn3)co2)cc1` [Example 2, 3-{2-[(E)-2-(4-Chloro-phenyl)-vinyl]-oxazol-4-ylmethoxy}-6-(4-[1,2,4]triazol-1-yl-butyl)-pyridazine] had a melting point of 165 to 167 °C. In data set [1], this compound gave an IC50 of 200 to 2000 nM.

On to `FC(F)(F)c1ccc(/C=C/c2nc(COc3ccc(CCCCn4cncn4)nn3)co2)cc1` [Example 3, 3-(4-[1,2,4]Triazol-1-yl-butyl)-6-{2-[(E)-2-(4-trifluoromethyl-phenyl)-vinyl]-oxazol-4-ylmethoxy}-pyridazine], for which the melting point lay within 145 to 146 °C. This compound displayed an IC50 in data set [1] of 930 nM.

Compound `Fc1cc(C(F)(F)F)ccc1/C=C/c1nc(COc2ccc(CCCCn3cncn3)nn2)co1` [Example 4, 3-{2-[(E)-2-(2-Fluoro-4-trifluoromethyl-phenyl)-vinyl]-oxazol-4-ylmethoxy}-6-(4-[1,2,4]triazol-1-yl-butyl)-pyridazine] yielded a melting point of 141 to 143 °C. The compound further displayed an IC50 in data set [1] of 200 to 2000 nM.

`FC(F)(F)c1ccc(/C=C/c2nc(COc3cnc(CCCCn4cncn4)cn3)co2)cc1` [Example 5, 2-(4-[1,2,4]Triazol-1-yl-butyl)-5-{2-[(E)-2-(4-trifluoromethyl-phenyl)-vinyl]-oxazol-4-ylmethoxy}-pyrazine]: the melting point lay within 147 to 148 °C. The same compound displayed an IC50 in data set [1] of 200 to 2000 nM.

`Clc1ccc(/C=C/c2nc(COc3cnc(CCCCn4cncn4)cn3)co2)cc1` [Example 6, 2-{2-[(E)-2-(4-Chloro-phenyl)-vinyl]-oxazol-4-ylmethoxy}-5-(4-[1,2,4]triazol-1-yl-butyl)-pyrazine] registered a melting point of 157 to 158 °C. The same compound came in with an IC50 in data set [1] of 1340 nM.

`FC(F)(F)Oc1ccc(/C=C/c2nc(COc3cnc(CCCCn4cncn4)cn3)co2)cc1` [Example 7, 2-(4-[1,2,4]Triazol-1-yl-butyl)-5-{2-[(E)-2-(4-trifluoromethoxy-phenyl)-vinyl]-oxazol-4-ylmethoxy}-pyrazine] returned a melting point of 121 to 123 °C.

As for `FC(F)(F)Oc1ccc(/C=C/c2nc(COc3ncc(CCCCn4cccn4)cn3)co2)cc1` [Example 8, 5-(4-Pyrazol-1-yl-butyl)-2-{2-[(E)-2-(4-trifluoromethoxy-phenyl)-vinyl]-oxazol-4-ylmethoxy}-pyrimidine], the melting point fell in the range of 143 to 145 °C. Further, the concentration for half-maximal inhibition (IC50) in data set [1] was 200 to 2000 nM.

For `FC(F)(F)c1ccc(/C=C/c2nc(COc3ncc(CCCCn4cccn4)cn3)co2)cc1` [Example 9, 5-(4-Pyrazol-1-yl-butyl)-2-{2-[(E)-2-(4-trifluoromethyl-phenyl)-vinyl]-oxazol-4-ylmethoxy}-pyrimidine], the melting point was 156 to 157 °C.

Compound `Clc1ccc(/C=C/c2nc(COc3ncc(CCCCn4cccn4)cn3)co2)cc1` [Example 10, 5-(4-Pyrazol-1-yl-butyl)-2-{2-[(E)-2-(4-chloro-phenyl)-vinyl]-oxazol-4-ylmethoxy}-pyrimidine] had a melting point of 149 to 150 °C. The compound also came in with an IC50 in data set [1] of 200 to 2000 nM.
